Our source for the Activity, IC50 and inhibition of growth values is ChEMBL document CHEMBL5579808, “Development of 1,5-diarylpyrazoles as EGFR/JNK-2 dual inhibitors: design, synthesis, moleecular docking, and bioactivity evaluation” (Bioorg Med Chem Lett, 2024).

Assay [1] concerns HeLa. Briefly: Induction of cell cycle arrest at G2 phase in human HeLa cells at IC50 incubated for 24 hrs by PI staining based flow cytometry (reference value: 7 %). It counts as functional. In general terms: A flow cytometer gives signals particle by particle.
Assay [2] has as its system HeLa. Briefly: Induction of apoptosis in human HeLa cells assessed as necrotic cells at 2 times IC50 incubated for 24 hrs by Annexin V-FITC/PI staining based flow cytometry (reference value: 1.8 %). The format is functional.
In assay [3] the test system is K562. Nature of the assay: Antiproliferative activity against human K562 cells by WST-8 assay. It counts as functional, cell-based. A general note: Formazan colour is commonly taken as a measure of viable cells.
The subject of assay [4] is HeLa. Nature of the assay: Induction of cell cycle arrest at S phase in human HeLa cells at IC50 incubated for 24 hrs by PI staining based flow cytometry (reference value: 8 %). The format is functional.
The test system of assay [5] is HeLa. Nature of the assay: Induction of cell cycle arrest at G2 phase in human HeLa cells at IC50 incubated for 48 hrs by PI staining based flow cytometry (reference value: 7 %). The format is functional.
A short description of assay [6]: Growth inhibition of human SUIT-2 cells at 100 uM by WST-8 assay relative to control. It counts as functional. As to conditions: read-out: GI.
Assay [7] has as its system DLD-1. Nature of the assay: Growth inhibition of human DLD-1 cells at 100 uM by WST-8 assay relative to control. It counts as functional. As to conditions: read-out: GI.
Assay [8] relates to HeLa. Nature of the assay: Induction of cell cycle arrest at G1 phase in human HeLa cells at IC50 incubated for 48 hrs by PI staining based flow cytometry (reference value: 68 %). The format is functional.
The test system of assay [9] is HeLa. Briefly: Induction of apoptosis in human HeLa cells assessed as early apoptotic cells at 2 times IC50 incubated for 24 hrs by Annexin V-FITC/PI staining based flow cytometry (reference value: 0 %). It counts as functional.
For assay [10], the system named is K562. Briefly: Growth inhibition of human K562 cells at 100 uM by WST-8 assay relative to control. It counts as functional. Particulars: read-out: GI.
For assay [11], the system named is HepG2. Nature of the assay: Growth inhibition of human HepG2 cells at 100 uM by WST-8 assay relative to control. The format is functional. As to conditions: read-out: GI.
Assay [12] has as its system HeLa. Nature of the assay: Induction of cell cycle arrest at S phase in human HeLa cells at IC50 incubated for 48 hrs by PI staining based flow cytometry (reference value: 8 %). It counts as functional.
Assay [13] deals with HeLa. Briefly: Antiproliferative activity against human HeLa cells by WST-8 assay. It counts as functional, cell-based.
Assay [14] concerns HeLa. Nature of the assay: Growth inhibition of human HeLa cells at 100 uM by WST-8 assay relative to control. The format is functional. As to conditions: read-out: GI.
The test system of assay [15] is HeLa. Nature of the assay: Induction of apoptosis in human HeLa cells assessed as late apoptotic cells at 2 times IC50 incubated for 24 hrs by Annexin V-FITC/PI staining based flow cytometry (reference value: 0 %). The format is functional.
The subject of assay [16] is HepG2. Briefly: Antiproliferative activity against human HepG2 cells by WST-8 assay. The format is functional, cell-based.
Assay [17] concerns HeLa. Briefly: Induction of apoptosis in human HeLa cells assessed as total cells at 2 times IC50 incubated for 24 hrs by Annexin V-FITC/PI staining based flow cytometry (reference value: 1.8 %). The format is functional.
Assay [18] concerns HeLa. Nature of the assay: Induction of cell cycle arrest at G1 phase in human HeLa cells at IC50 incubated for 24 hrs by PI staining based flow cytometry (reference value: 68 %). It counts as functional.
Assay [19] can be described thus: Antiproliferative activity against human SUIT-2 cells by WST-8 assay. It counts as functional, cell-based.
For assay [20], the target named is Mitogen-activated protein kinase 9 (Homo sapiens, UniProt P45984). Nature of the assay: Inhibition of JNK2 (unknown origin) incubated for 90 mins by ELISA.
Mitogen-activated protein kinase 9, sequence (P45984 whole entry): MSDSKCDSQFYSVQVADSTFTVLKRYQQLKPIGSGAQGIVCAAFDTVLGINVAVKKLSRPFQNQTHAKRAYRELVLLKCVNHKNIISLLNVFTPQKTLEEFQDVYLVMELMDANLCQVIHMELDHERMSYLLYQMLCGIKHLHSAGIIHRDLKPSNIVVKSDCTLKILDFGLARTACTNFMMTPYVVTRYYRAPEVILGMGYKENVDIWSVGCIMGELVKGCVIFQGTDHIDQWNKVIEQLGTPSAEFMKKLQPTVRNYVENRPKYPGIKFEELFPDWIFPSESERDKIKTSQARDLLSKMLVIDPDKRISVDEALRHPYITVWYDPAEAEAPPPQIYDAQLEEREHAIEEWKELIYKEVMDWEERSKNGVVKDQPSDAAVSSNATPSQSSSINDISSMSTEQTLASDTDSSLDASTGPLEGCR
Assay [21] deals with Epidermal growth factor receptor (Mus musculus, UniProt Q01279). Nature of the assay: Inhibition of recombinant mouse EGFR by ELISA. (In general: ELISA stands for enzyme-linked immunosorbent assay.)
Epidermal growth factor receptor, sequence (Q01279 whole entry): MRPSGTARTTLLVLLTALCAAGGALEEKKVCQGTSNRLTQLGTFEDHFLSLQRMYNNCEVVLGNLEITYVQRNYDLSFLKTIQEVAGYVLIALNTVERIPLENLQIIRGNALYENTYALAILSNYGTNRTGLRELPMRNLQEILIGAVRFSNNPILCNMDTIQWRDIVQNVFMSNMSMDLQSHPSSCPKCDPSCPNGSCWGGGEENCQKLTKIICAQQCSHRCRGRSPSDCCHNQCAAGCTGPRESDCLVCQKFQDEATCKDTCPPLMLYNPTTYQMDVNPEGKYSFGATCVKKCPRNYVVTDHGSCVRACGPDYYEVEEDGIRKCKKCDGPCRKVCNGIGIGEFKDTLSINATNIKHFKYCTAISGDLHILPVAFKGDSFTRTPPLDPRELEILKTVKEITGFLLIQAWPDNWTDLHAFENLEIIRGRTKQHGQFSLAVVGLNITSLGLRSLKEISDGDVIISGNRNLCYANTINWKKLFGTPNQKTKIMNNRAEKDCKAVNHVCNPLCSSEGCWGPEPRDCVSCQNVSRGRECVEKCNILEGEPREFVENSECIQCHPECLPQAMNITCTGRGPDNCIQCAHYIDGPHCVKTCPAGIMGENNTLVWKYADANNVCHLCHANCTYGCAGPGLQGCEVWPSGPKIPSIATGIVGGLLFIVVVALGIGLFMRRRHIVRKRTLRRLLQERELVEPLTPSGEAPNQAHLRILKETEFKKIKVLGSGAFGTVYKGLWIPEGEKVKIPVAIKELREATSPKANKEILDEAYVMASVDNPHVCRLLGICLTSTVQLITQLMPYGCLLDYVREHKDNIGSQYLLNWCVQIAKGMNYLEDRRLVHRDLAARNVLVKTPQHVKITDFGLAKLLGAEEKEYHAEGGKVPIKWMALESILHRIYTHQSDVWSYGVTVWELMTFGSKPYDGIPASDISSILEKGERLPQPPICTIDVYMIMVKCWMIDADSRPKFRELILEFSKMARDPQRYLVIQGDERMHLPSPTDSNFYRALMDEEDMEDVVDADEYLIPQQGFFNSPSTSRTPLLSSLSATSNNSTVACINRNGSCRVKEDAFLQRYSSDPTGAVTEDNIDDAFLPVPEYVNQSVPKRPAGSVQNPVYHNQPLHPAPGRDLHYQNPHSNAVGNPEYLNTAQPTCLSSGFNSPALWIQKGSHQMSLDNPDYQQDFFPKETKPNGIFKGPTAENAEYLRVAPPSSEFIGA
Assay [22] deals with DLD-1. Nature of the assay: Antiproliferative activity against human DLD-1 cells by WST-8 assay. The format is functional, cell-based.
The subject of assay [23] is HeLa. Briefly: Induction of apoptosis in human HeLa cells assessed as early apoptotic cells at half of IC50 incubated for 24 hrs by Annexin V-FITC/PI staining based flow cytometry (reference value: 0 %). The format is functional.
Assay [24] deals with HeLa. Nature of the assay: Induction of apoptosis in human HeLa cells assessed as total cells at half of IC50 incubated for 24 hrs by Annexin V-FITC/PI staining based flow cytometry (reference value: 1.8 %). The format is functional.
Assay [25] relates to HeLa. Nature of the assay: Induction of apoptosis in human HeLa cells assessed as late apoptotic cells at half of IC50 incubated for 24 hrs by Annexin V-FITC/PI staining based flow cytometry (reference value: 0 %). It counts as functional.
Assay [26] relates to HeLa. Nature of the assay: Induction of apoptosis in human HeLa cells assessed as necrotic cells at half of IC50 incubated for 24 hrs by Annexin V-FITC/PI staining based flow cytometry (reference value: 1.8 %). The format is functional.

Each structure is given as a SMILES string.

For `COc1cc(C=O)ccc1OC(=O)c1cc(-c2ccc(C)cc2)n(-c2ccccc2)n1`, the Activity in assay [1] was found to be 21%; in assay [2], 33%; in [4], 8%; in assay [5], 23%; in assay [8], 59%; in [9], 5.9%. In addition, the Activity amounted to 5% in assay [12], 48% in assay [15], 86% in [17] and 64% in assay [18]. For the same molecule, the IC50 in assay [3] was 14.8 µM; in assay [13] it was 15 µM; in [16], 8.9 µM. Further, the inhibition of growth at 100 µM in assay [6] was determined as 89%; in [7], 70%; in [10], 79%; in assay [11], 50%; in assay [14], 84%.

Regarding `CS(=O)(=O)c1ccc(NC(=O)c2cc(-c3ccc(Cl)cc3)n(-c3ccccc3)n2)cc1`, the Activity in [1] turned out to be 6%; in [2], 18%; in assay [4], 82%; in assay [9] it was 1.4%; in assay [15], 75%; in [17], 94%. In [18], the Activity stood at 6%. For the same molecule, the IC50 in assay [3] was 21.8 µM; in assay [19] it was 25 µM; in assay [13] it was 16 µM; in assay [20], over 200 µM; in [21], 1.7 µM; in [22] it was 5.7 µM. In addition, the inhibition of growth at 100 µM stood at 94% in assay [6]; 98% in [7]; 88% in assay [10]; 50% in assay [11]; 101% in [14].

In the case of `COc1cc(C=O)ccc1OC(=O)c1cc(-c2ccc(C)cc2)n(-c2ccc(S(N)(=O)=O)cc2)n1`, the Activity was 7% in [1]; 83% in assay [4]; 0.4% in assay [23]; 25% in assay [24]; 19% in assay [25]; 5.9% in assay [26]. For the same molecule, the Activity in assay [18] is listed as 4%. Moreover, the IC50 in assay [3] came out at 7.6 µM; in assay [19], 17 µM; in assay [13], 14 µM; in [20] it was 2 µM; in [21], 50 µM; in assay [16], 2.7 µM. The same molecule displayed an IC50 in [22] of 17 µM. Besides, the inhibition of growth at 100 µM is 87% in assay [6]; 100% in [7]; 95% in assay [10]; 101% in assay [11]; 95% in assay [14].

As to `COc1ccc(-c2cc(C(=O)Oc3ccc(C=O)cc3OC)nn2-c2ccc(S(N)(=O)=O)cc2)cc1`, the IC50 in assay [3] is 14.9 µM; in assay [19], 5 µM; in assay [13], 31 µM; in assay [20] it was 0.9 µM; in assay [21] it was over 1000 µM; in [16] it was 7.8 µM. Further, it took 5.6 µM to reach half-maximal inhibition in assay [22] (IC50). Besides, the inhibition of growth at 100 µM in assay [6] worked out at 95%; in assay [7], 104%; in [10] it was 85%; in assay [11], 82%; in [14] it was 78%.

Usually IC50 stands for the concentration at which inhibition is half-maximal.
